In the assay the test system is B6C3F1 mice, colon carcinoma 38 s.c., T/C. Description: NCI In Vivo Anticancer Drug Screen. Data for tumor model Colon Carcinoma 38 (subcutaneous) in B6C3F1 mice. The conditions noted are these: endpoint: median tumor weight (est.), higher = larger tumour. Here is the method: The antitumor activity of compounds was measured in mice bearing transplantable tumors. Survival or tumor size were measured and the results are expressed as the measurement made in the treated group (T) divided by the measurement made in the vehicle treated control group (C). The tumor model used in this assay is Colon Carcinoma 38 (subcutaneous) in B6C3F1 mice

Where [1] appears, read: dose: 50.0 mg/kg/injection, schedule: Q07DX002 (ip), vehicle: saline with Tween-80.
[2] abbreviates: dose: 200.0 mg/kg/injection, schedule: Q07DX002 (ip), vehicle: saline with Tween-80.
The mark [3] stands for this setting: dose: 400.0 mg/kg/injection, schedule: Q07DX002 (ip), vehicle: saline with Tween-80.
[4] abbreviates: dose: 4.0 mg/kg/injection, schedule: Q07DX002 (ip), vehicle: saline.
[5] abbreviates: dose: 25.0 mg/kg/injection, schedule: Q07DX002 (ip), vehicle: Klucel (hydroxypropylcellulose) (HPC).
[6] abbreviates: dose: 100.0 mg/kg/injection, schedule: Q07DX002 (ip), vehicle: Klucel (hydroxypropylcellulose) (HPC).
Where [7] appears, read: dose: 200.0 mg/kg/injection, schedule: Q07DX002 (ip), vehicle: Klucel (hydroxypropylcellulose) (HPC).
[8] abbreviates: dose: 400.0 mg/kg/injection, schedule: Q07DX002 (ip), vehicle: Klucel (hydroxypropylcellulose) (HPC).
The mark [9] stands for this setting: dose: 100.0 mg/kg/injection, schedule: Q07DX002 (ip), vehicle: saline with Tween-80.
Setting [10] is: dose: 50.0 mg/kg/injection, schedule: Q07DX002 (ip), vehicle: Klucel (hydroxypropylcellulose) (HPC).

Records with an inconclusive call do not appear.

For the compound `CSc1ncnc2c1ncn2C1OC(CO)C(O)C1O` (stereo not given), the T/C (dose: 25.0 mg/kg/injection, schedule: Q07DX002 (ip), vehicle: saline + alcohol) is 98 % of control; the T/C (dose: 50.0 mg/kg/injection, schedule: Q07DX002 (ip), vehicle: saline + alcohol) is 51 % of control; the T/C (dose: 100.0 mg/kg/injection, schedule: Q07DX002 (ip), vehicle: saline + alcohol) is 49 % of control; the T/C (dose: 200.0 mg/kg/injection, schedule: Q07DX002 (ip), vehicle: saline + alcohol) is 32 % of control.

For `Nc1ccc2ccc(NS(=O)(=O)N3CCCCC3)cc2c1`, the T/C is 108 % of control under setting [1], 39 % of control under setting [2] and 15 % of control under setting [3].

Take `O=P1(NCCCl)OCCCN1CCCl` (stereo not given): the T/C (dose: 30.0 mg/kg/injection, schedule: Q01DX006 (ip), vehicle: saline) was 61 % of control.

In the case of `CC[C@@H](C)[C@@H]1NC(=O)C(NC(=O)C(CC(C)C)N(C)C(=O)C2CCCN2C(=O)C(C)O)C(C)OC(=O)C(Cc2ccc(OC)cc2)N(C)C(=O)C2CCCN2C(=O)C(CC(C)C)NC(=O)C(C)C(=O)C(C(C)C)OC(=O)C[C@H]1O` (stereo not given in full), under “dose: 600.0 micrograms/kg/injection, schedule: Q07DX002 (ip), vehicle: distilled water + alcohol”, the T/C was 118 % of control.

Regarding `COC(=O)C[C@](O)(CCC(C)(C)O)C(=O)O[C@@H]1C(OC)=C[C@]23CCCN2CCc2cc4c(cc2[C@H]13)OCO4`, the T/C is 117 % of control (dose: 0.5 mg/kg/injection, schedule: Q07DX002 (ip), vehicle: saline); 54 % of control (dose: 1.0 mg/kg/injection, schedule: Q07DX002 (ip), vehicle: saline); 40 % of control (dose: 2.0 mg/kg/injection, schedule: Q07DX002 (ip), vehicle: saline); 14 % of control under setting [4].

Turning to `N=C(N)CCCCCCCCC(=N)N`, the T/C reads like this: (dose: 6.25 mg/kg/injection, schedule: Q07DX002 (ip), vehicle: Klucel (hydroxypropylcellulose) (HPC)) 169 % of control; (dose: 12.5 mg/kg/injection, schedule: Q07DX002 (ip), vehicle: Klucel (hydroxypropylcellulose) (HPC)) 109 % of control; under setting [5], 109 % of control.

Turning to `Cc1c(N)nc(C(CC(N)=O)NCC(N)C(N)=O)nc1C(=O)NC(C(=O)NC(C)C(O)CC(=O)NC(C(=O)NC(OC1OC(C)C(N)C(O)C1O)C(O)c1nc(-c2nc(C(=O)NCCCC(N)CC(=O)NCCCNCCCCN)cs2)cs1)C(C)O)C(OC1OC(CO)C(O)C(O)C1OC1OC(CO)C(O)C(OC(N)=O)C1O)c1cnc[nH]1` (stereo not given), the T/C is, setting by setting: under setting [4], 36 % of control; (dose: 8.0 mg/kg/injection, schedule: Q07DX002 (ip), vehicle: saline) 15 % of control; (dose: 16.0 mg/kg/injection, schedule: Q07DX002 (ip), vehicle: saline) 8 % of control; (dose: 32.0 mg/kg/injection, schedule: Q07DX002 (ip), vehicle: saline) 1 % of control.

For `COc1ccc(C(=O)C(CN(C)C)CN(C)C)cc1`, the T/C was 109 % of control (dose: 3.12 mg/kg/injection, schedule: Q07DX002 (ip), vehicle: saline); 113 % of control (dose: 6.25 mg/kg/injection, schedule: Q07DX002 (ip), vehicle: saline); 115 % of control (dose: 12.5 mg/kg/injection, schedule: Q07DX002 (ip), vehicle: saline); 102 % of control (dose: 25.0 mg/kg/injection, schedule: Q07DX002 (ip), vehicle: saline).

As for `BrCCC1(CCBr)CCCCC1`, the T/C by setting is: (dose: 100.0 mg/kg/injection, schedule: Q07DX002 (ip), vehicle: water) 112 % of control; (dose: 200.0 mg/kg/injection, schedule: Q07DX002 (ip), vehicle: water) 177 % of control; (dose: 400.0 mg/kg/injection, schedule: Q07DX002 (ip), vehicle: water) 95 % of control; (dose: 800.0 mg/kg/injection, schedule: Q07DX002 (ip), vehicle: water) 117 % of control; (dose: 1600.0 mg/kg/injection, schedule: Q07DX002 (ip), vehicle: water) 90 % of control.

As to `Cc1ccoc1`, the T/C is, setting by setting: (dose: 16.8 mg/kg/injection, schedule: Q03HX006 (ip), vehicle: saline with Tween-80) 75 % of control; (dose: 33.33 mg/kg/injection, schedule: Q03HX006 (ip), vehicle: saline with Tween-80) 109 % of control; (dose: 66.66 mg/kg/injection, schedule: Q03HX006 (ip), vehicle: saline with Tween-80) 114 % of control; (dose: 133.33 mg/kg/injection, schedule: Q03HX006 (ip), vehicle: saline with Tween-80) 108 % of control.

As for `COC1C(CO)OC(n2cnc3c(=S)nc(N)[nH]c32)C1O` (stereo not given), the T/C is, setting by setting: under setting [6], 110 % of control; under setting [7], 46 % of control; under setting [8], 51 % of control; (dose: 800.0 mg/kg/injection, schedule: Q07DX002 (ip), vehicle: Klucel (hydroxypropylcellulose) (HPC)) 13 % of control.

For the compound `O=C1SC(c2ccccc2)=S=C1c1ccccc1`, the T/C was 152 % of control under setting [1]; 114 % of control under setting [9]; 104 % of control under setting [2]; 120 % of control under setting [3]; 104 % of control (dose: 800.0 mg/kg/injection, schedule: Q07DX002 (ip), vehicle: saline with Tween-80).

On to `COC(=O)NC1C(C)OC(OC2C/C=C(/C)C3C=CC4C(OC5CC(OC6CCC(OC7CC(O)C(OC8CCC(O)C(C)O8)C(C)O7)C(C)O6)C(OC(C)=O)C(C)O5)C(C)CC(C)C4C3(C)/C(O)=C3/C(=O)OC4(CC(C=O)=CC(O)C4/C=C\2C)C3=O)CC1(C)[N+](=O)[O-]` (stereo not given), for which the T/C by setting is: (dose: 2.5 mg/kg/injection, schedule: Q07DX002 (ip), vehicle: water) 86 % of control; (dose: 5.0 mg/kg/injection, schedule: Q07DX002 (ip), vehicle: water) 96 % of control; (dose: 10.0 mg/kg/injection, schedule: Q07DX002 (ip), vehicle: water) 89 % of control; (dose: 20.0 mg/kg/injection, schedule: Q07DX002 (ip), vehicle: water) 82 % of control.

`COc1ccc2c(ccc3oc([N+](=O)[O-])cc32)c1`: the T/C was 101 % of control under setting [1], 116 % of control under setting [9], 90 % of control under setting [2] and 92 % of control under setting [3].

On to `COc1cc(C)c(C2NC(=O)c3ccccc3N2)cc1C` (stereo not given), for which the T/C reads like this: (dose: 450.0 mg/kg/injection, schedule: Q07DX002 (ip), vehicle: Klucel (hydroxypropylcellulose) (HPC)) 70 % of control; (dose: 900.0 mg/kg/injection, schedule: Q07DX002 (ip), vehicle: Klucel (hydroxypropylcellulose) (HPC)) 53 % of control; (dose: 1800.0 mg/kg/injection, schedule: Q07DX002 (ip), vehicle: Klucel (hydroxypropylcellulose) (HPC)) 115 % of control; (dose: 3600.0 mg/kg/injection, schedule: Q07DX002 (ip), vehicle: Klucel (hydroxypropylcellulose) (HPC)) 55 % of control.

Take `CCNC(=O)[B-][N+](C)(C)C`: the T/C is 101 % of control under setting [5]; 55 % of control under setting [10]; 87 % of control under setting [6]; 107 % of control under setting [7]; 81 % of control under setting [8].

For the compound `CCN(CC)CCNc1ccc(C)c2sc3ccccc3c(=O)c12`, the T/C (dose: 50.0 mg/kg/injection, schedule: Q07DX002 (ip), vehicle: suspension in saline) was 66 % of control; the T/C (dose: 100.0 mg/kg/injection, schedule: Q07DX002 (ip), vehicle: suspension in saline) is 42 % of control; the T/C (dose: 200.0 mg/kg/injection, schedule: Q07DX002 (ip), vehicle: suspension in saline) is 2 % of control.

Take `C=C(Cl)C(=NC(C)(C)C)Nc1ccccc1C`: the T/C under setting [6] was 88 % of control.

As to `NS(=O)(=O)OCCCCCCCOS(N)(=O)=O`, the T/C reads like this: (dose: 12.5 mg/kg/injection, schedule: Q07DX002 (ip), vehicle: saline with Tween-80) 214 % of control; (dose: 25.0 mg/kg/injection, schedule: Q07DX002 (ip), vehicle: saline with Tween-80) 270 % of control; under setting [1], 192 % of control; under setting [9], 94 % of control; under setting [2], 104 % of control.

In the case of `O=C(C/C(=N\C(=S)Nc1cc(C(F)(F)F)ccc1Cl)NO)N1CCCC1`, the T/C under setting [1] was 85 % of control, the T/C under setting [9] was 57 % of control, the T/C under setting [2] is 70 % of control and the T/C under setting [3] is 100 % of control.

With `O=c1[nH]cnc2nc(/N=N/SCCO)[nH]c12`, the T/C is 115 % of control under setting [10], 114 % of control under setting [6] and 101 % of control under setting [7].

Values taken from PubChem BioAssay AID214 (DTP/NCI, 2004).
